# From patent US20110150980A1, “CGRP ANALOG” (VasoGenix Pharmaceuticals, Inc., priority 2009, published 2011)
# Columns and labels:
# rats = conditions: 19 ng/kg/min; cited from earlier work
# [1] = system: non-sedated, non-naïve cynomolgus monkeys; assay: Intravenous infusion in non-sedated, telemeterized non-human primates: blood pressure, heart rate, ECG (Example 2); assay type: in vivo
# Description: Peptides were synthesized as in Example 1. […] Two non-naïve, telemeterized, male non-human primates (NHP “a” and “b”) were used for the test article(s) dosing regimen. […] Following a stabilized baseline period of approximately 30 minutes, one of the test article(s) was administered as an intravenous infusion via a femoral vein vascular access port (VAP) using a Pegasus PCA infusion pump for a period of 30 or 60 minutes. A minimum period of 30 minutes was allotted for the hemodynamic parameters to return to baseline prior to the next test article infusion dose. The process was repeated for each of the stated test articles. The same procedure was followed for the 1 hour infusion with 1 hour allotted for parameters to return to base line.
# The non-human primates were previously surgically prepared with telemetry transducers, type TL11M2-D70-PCT (Data Sciences International). The acquisition and analysis was done using a Ponemah (Version 4.8 or higher) data acquisition and analysis system installed on the hard drive of a computer. The computer was equipped with disk drive for file back up on readable write-once only optical media (CD-R or DVD-R).
# Prior to the first dose administration, baseline data was acquired. For each subsequent dose, data was collected for approximately 30 min postdose. Prior to the next dose, the hemodynamic parameters were allowed to return to a stable baseline±10%.
# Systolic blood pressure (SYS or SBP), diastolic blood pressure (DBP), mean arterial pressure (MAP), heart rate (HR), and all lead II ECG variables were recorded. The telemetry data files were transferred to an Excel (MicroSoft® Version 2003) spreadsheet. The following variables from the lead II ECG were measured: PR interval, QRS duration, QT interval, RR interval, and QTcF interval (calculated as
# A visual inspection of the entire collected ECG waveform for disturbances in rhythm and waveform morphology was performed. The data for selected time points were analyzed and assessed on completion of data acquisition and were the average of at least 30 beats (ABP and ECG) of data at the selected analysis time, when possible. The time points for both hemodynamic and ECG data analysis were an initial 30 min baseline prior to the first dose, at a 10 min during each infusion postdose interval relative to end of each infusion, and time points prior to the next test article infusion for each test compound.
# Non-human primates were selected because they have the same RAMP 1-CGRP receptor complex as humans.
# [2] = NHP a, dose day 2, during 30 minute infusions of 0.024 ug/kg/min
# [3] = NHP a, dose day 3, during 30 minute infusions of 0.024 ug/kg/min
# [4] = NHP a, dose day 3, during 1 hour infusion of 0.024 ug/kg/min
# [5] = NHP b, dose day 2, during 30 minute infusions of 0.024 ug/kg/min
# [6] = NHP b, dose day 3, during 30 minute infusions of 0.024 ug/kg/min
# [7] = NHP b, dose day 3, during 1 hour infusion of 0.024 ug/kg/min
# [8] = average of a 2, b 2, a 3, b 3, during 30 minute infusions of 0.024 ug/kg/min
# [9] = average of a3, b3, during 1 hour infusion of 0.024 ug/kg/min
substance,measurement,setting,value
ACNTATCVTHRLAGLLSRSGGMVKSNFVPTNVGSKAF-NH2 [βCGRP],heart rate and blood pressure effect,rats,tachycardia with no significant hypotension
same,course of heart rate during 1 hour infusion,"[1]; 1 hour infusion of 0.024 ug/kg/min, after 30 minutes",Heart rate continues to drop after 30 minutes
same,"Percent change in HR, a 2",[1]; [2],1.2%
same,"Percent change in mean BP, a 2",[1]; [2],−8.8%
same,"Percent change in systolic BP, a 2",[1]; [2],−7.4%
same,"Percent change in HR, a 3",[1]; [3],−13.6%
same,"Percent change in mean BP, a 3",[1]; [3],−16.8%
same,"Percent change in systolic BP, a 3",[1]; [3],−12.2%
same,"Percent change in HR at 30 minutes, a3",[1]; [4],−13.6%
same,"Percent change in HR at 60 minutes, a3 1 hr",[1]; [4],−10.7%
same,"Percent change in mean systolic BP at 30 minutes, a3",[1]; [4],−16.8%
same,"Percent change in mean systolic BP at 60 minutes, a3 1 hr",[1]; [4],0.0%
same,"Percent change in systolic BP at 30 minutes, a3",[1]; [4],−12.2%
same,"Percent change in systolic BP at 60 minutes, a3 1 hr",[1]; [4],−0.8%
same,"Percent change in HR, b 2",[1]; [5],−21.3%
same,"Percent change in mean BP, b 2",[1]; [5],−6.7%
same,"Percent change in systolic BP, b 2",[1]; [5],−8.1%
same,"Percent change in HR, b 3",[1]; [6],−22.0%
same,"Percent change in mean BP, b 3",[1]; [6],−23.4%
same,"Percent change in systolic BP, b 3",[1]; [6],−23.2%
same,"Percent change in HR at 30 minutes, b3",[1]; [7],−22.0%
same,"Percent change in HR at 60 minutes, b3 1 hr",[1]; [7],−18.1%
same,"Percent change in mean systolic BP at 30 minutes, b3",[1]; [7],−23.4%
same,"Percent change in mean systolic BP at 60 minutes, b3 1 hr",[1]; [7],−10.7%
same,"Percent change in systolic BP at 30 minutes, b3",[1]; [7],−23.2%
same,"Percent change in systolic BP at 60 minutes, b3 1 hr",[1]; [7],−10.1%
same,"Percent change in mean HR, a 2","[1]; Table 14, NHP a, dose day 2, during 30 minute infusions of 0.024 ug/kg/min",1.2%
same,"Percent change in mean HR, a 3","[1]; Table 14, NHP a, dose day 3, during 30 minute infusions of 0.024 ug/kg/min",−13.6%
same,"Percent change in mean HR, b 2","[1]; Table 14, NHP b, dose day 2, during 30 minute infusions of 0.024 ug/kg/min",−21.3%
same,"Percent change in mean HR, b 3","[1]; Table 14, NHP b, dose day 3, during 30 minute infusions of 0.024 ug/kg/min",−22.0%
same,"Percent change in mean HR, HR","[1]; Table 14, average of a 2, b 2, a 3, b 3, during 30 minute infusions of 0.024 ug/kg/min",−13.9%
same,"Percent change in mean HR at 30 minutes, a3","[1]; Table 24, NHP a, dose day 3, during 1 hour infusion of 0.024 ug/kg/min",−13.6%
same,"Percent change in mean HR at 30 minutes, b3","[1]; Table 24, NHP b, dose day 3, during 1 hour infusion of 0.024 ug/kg/min",−22.0%
same,"Percent change in mean HR at 30 minutes, HR T30","[1]; Table 24, average of a3, b3, during 1 hour infusion of 0.024 ug/kg/min",−17.8%
same,"Percent change in mean HR at 60 minutes, a3 1 hr","[1]; Table 25, NHP a, dose day 3, during 1 hour infusion of 0.024 ug/kg/min",−10.7%
same,"Percent change in mean HR at 60 minutes, b3 1 hr","[1]; Table 25, NHP b, dose day 3, during 1 hour infusion of 0.024 ug/kg/min",−18.1%
same,"Percent change in mean HR at 60 minutes, HR T60","[1]; Table 25, average of a3, b3, during 1 hour infusion of 0.024 ug/kg/min",−14.4%
same,"Percent change in HR, HR",[1]; [8],−13.9%
same,"Percent change in mean BP, BP",[1]; [8],−13.9%
same,"Percent change in systolic BP, BP",[1]; [8],−12.7%
same,"Percent change in HR at 30 minutes, HR T30",[1]; [9],−17.8%
same,"Percent change in HR at 60 minutes, HR T60",[1]; [9],−14.4%
same,"Percent change in mean systolic BP at 30 minutes, BP T30",[1]; [9],−20.1%
same,"Percent change in mean systolic BP at 60 minutes, BP T60",[1]; [9],−5.4%
same,"Percent change in systolic BP at 30 minutes, T30",[1]; [9],−17.7%
same,"Percent change in systolic BP at 60 minutes, T60",[1]; [9],−5.4%
same,effect on heart rate,"[1]; non-sedated cynomolgus monkeys, IV infusion","maintenance of pre-administration heart rate, and in some cases, reduction in heart rate"
